Like-named read-outs stand apart in the source and are kept apart here.

7 molecules from US12226424B2, “Target protein degradation compounds, their anti-tumor use, their intermediates and use of intermediates” (ShanghaiTech University, priority 2018, dated 2025) can be followed below.

The test system of one assay is MDA-MB-453 cells. The assay can be described thus: Half inhibitory concentration (IC50) on BET-expressing tumor cells, CCK-8, MDA-MB-453. Conditions: 48/72 h, read-out: IC50 (nM)/MDA-MB-453 cell line. It is filed as cell-based, human. On the procedure:
(§1) BET-expressing cells MV-4-11 cells (human B granulocytic leukemia cells), MDA-MB-231 cells (human breast cancer cells), MDA-MB-468 cells (human breast cancer cells), MDA-MB-453 Cells (human breast cancer cells), MM1S cells (myeloma (immunoglobulin A lambda), B lymphoblasts) and SR cells (human large cell immunoblast lymphoma) were purchased from the American Type Culture Collection (ATCC).
(§2) The cells used in this present disclosure were cultured in a 37° C. incubator containing 5% CO2. The complete cell culture medium was RPMI 1640/IMDM/DMEM medium with 10% fetal bovine serum, and the final concentrations of penicillin and streptomycin were 100 U/mL, respectively. All cells were tested negative for mycoplasma with mycoplasma detection kit before the experiment.
(§3) Determination of the Half Inhibitory Concentration (IC50) of PROTAD Compounds on Tumor Cells
(§4) MV-411 cells, MM1S cells and SR cells were seeded in 100 μL IMDM/RPMI1640/DMEM complete medium at a density of 15000/10000 cells/well; MDA-MB-231 cells, MDA-MB-468 cells, and MDA-MB453 cells were seeded in 100 μL IMDM/RPMI1640/DMEM complete medium at a density of 3000/5000 cells/well, respectively. 100 μL of the inoculated cells were treated with 0.5 μL diluted PROTAD compounds of the present disclosure to be tested at 10 successively decreasing concentrations (starting at the highest concentration of 10 μM; 5-fold serial dilutions). After the cells were treated with the tested drugs 48/72 h, the cell viability was determined according to the CCK-8 reagent manual. The negative control was DMSO, and the positive control was a commercial inhibitor. After CCK-8 treatment for 2 h, the value of O.D.450 was measured using a microplate reader.

The next assay has as its system MV-4-11 cells. The assay is described as follows: Half inhibitory concentration (IC50) on BET-expressing tumor cells, CCK-8, MV-4-11. Conditions: Homo sapiens, MV4-11, read-out: IC50 (nM)/MV-4-11 cell line, MV-4-11 cells, 48/72 h, CCK-8.
A further assay concerns MM1S cells. The assay is described as follows: Half inhibitory concentration (IC50) on BET-expressing tumor cells, CCK-8, MM1S. It is filed as cell-based. Conditions: Homo sapiens, MM1.S, 48/72 h, read-out: IC50 (nM)/MM1S cell line. The method in brief: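 Cells treated for 48/72 h with ten 5-fold dilutions from 10 μM top, DMSO as negative control. Viability read by CCK-8 (2 h, OD450) and IC50 derived from the concentration series; suspension lines seeded at 15000/10000 cells/well, MDA-MB lines at 3000/5000 cells/well.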

For the next assay, the system named is MDA-MB-468 cells. The assay can be described thus: Half inhibitory concentration (IC50) on BET-expressing tumor cells, CCK-8, MDA-MB-468. It is filed as cell-based. Conditions: Homo sapiens, 48/72 h, read-out: IC50 (nM)/MDA-MB-468 cell line. As for the experimental part:
as §1, §2, §3, §4

The subject of another assay is SR cells. The assay can be described thus: Half inhibitory concentration (IC50) on BET-expressing tumor cells, CCK-8, SR. It is filed as cell-based. Conditions: Homo sapiens, 48/72 h, read-out: IC50 (nM)/SR cell line. On the procedure:
as §1, §2, §3, §4

The next assay deals with MDA-MB-231 cells. The assay is described as follows: Half inhibitory concentration (IC50) on BET-expressing tumor cells, CCK-8, MDA-MB-231. Conditions: Homo sapiens, 48/72 h, read-out: IC50 (nM)/MDA-MB-231 cell line. It is filed as cell-based. As for the experimental part: as §1, §2, §3, §4
Another assay addresses T1, ER protein (Homo sapiens, UniProt P03372).
T1 construct: detect the expression of ER protein in T-47D cells; endogenous in cells; host or cells: T-47D
T1 sequence (P03372 1-595): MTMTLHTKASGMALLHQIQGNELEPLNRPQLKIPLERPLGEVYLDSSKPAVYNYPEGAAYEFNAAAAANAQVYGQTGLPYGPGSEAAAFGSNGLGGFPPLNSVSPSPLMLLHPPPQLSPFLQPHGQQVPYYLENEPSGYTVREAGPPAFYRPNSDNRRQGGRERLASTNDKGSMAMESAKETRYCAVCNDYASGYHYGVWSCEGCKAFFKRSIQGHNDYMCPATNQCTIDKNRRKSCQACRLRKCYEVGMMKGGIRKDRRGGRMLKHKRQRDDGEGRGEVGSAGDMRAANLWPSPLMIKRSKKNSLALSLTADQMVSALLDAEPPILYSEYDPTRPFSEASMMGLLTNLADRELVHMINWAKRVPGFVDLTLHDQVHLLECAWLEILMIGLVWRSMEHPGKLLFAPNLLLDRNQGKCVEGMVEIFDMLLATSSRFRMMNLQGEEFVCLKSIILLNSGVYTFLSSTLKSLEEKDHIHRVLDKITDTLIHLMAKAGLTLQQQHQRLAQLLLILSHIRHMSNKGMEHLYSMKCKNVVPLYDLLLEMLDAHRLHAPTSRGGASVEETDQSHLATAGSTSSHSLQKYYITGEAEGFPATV
The assay is described as follows: Western blot half degradation concentration (DC50) of ER protein in T-47D cells. It is filed as cell-based. Conditions: 24 h, read-out: DC50 (nM)/T-47D cell line. As for the experimental part:
ER positive cells T-47D cells (human breast cancer cells) were purchased from the Cell Bank of the Chinese Academy of Sciences;
The cells used in this present disclosure were cultured in a 37° C. incubator containing 5% CO2. The complete cell culture medium was RPMI 1640 medium with 10% fetal bovine serum, and the final concentrations of penicillin and streptomycin were 100 U/mL, respectively. All cells were tested negative for mycoplasma with mycoplasma detection kit before the experiment.
Western Blot Determination of the Half Degradation Concentration (DC50) of the PROTAD Compounds on Target Proteins
The PROTAD compounds of the present disclosure were tested at 5 concentration of 1 nM, 10 nM, 50 nM, 100 nM, 500 nM, respectively, or 5 concentration gradients of 0.04 nM, 0.2 nM, 1 nM, 10 nM, 50 nM, and DMSO and commercial parent inhibitor groups (tamoxifen, toremifene) were set as negative and positive controls at the same time. After the drug treatment for 24 h, cells were washed twice with PBS, and lyzed by adding 50 μL of SDS lysate to each well for lysis on ice for 5 min.

In assay [1] the target is T2, BRD4 (Homo sapiens, UniProt O60885). The assay can be described thus: Western-blot degradation of BRD4 in MV-4-11 cells. It is filed as cell-based. Conditions: 24 hours. An excerpt:
(§5) Western-Blot Determination of the Half-Degradation Concentration (DC50) of the PROTAD Compounds on the Target Proteins
(§6) The supernatant was aspirated as total cell protein extracted.

For assay [2], the target named is T2, BRD4. The assay can be described thus: Western-blot detection of BRD4 protein degradation (FIGS. 16a-c). It is filed as cell-based.
In assay [3] the target is T3, BRD2 (Homo sapiens, UniProt P25440). The assay can be described thus: Western-blot detection of BRD2 protein degradation (FIGS. 16a-c). It is filed as cell-based.
Assay [4] has as its target T3, BRD2. The assay can be described thus: Western-blot half-degradation concentration (DC50) / degradation of BRD2 in MV-4-11 cells. It is filed as cell-based. Conditions: 24 hours.
Description: as §5, §6

Where [5] appears, read: Homo sapiens, MDA-MB-453, MDA-MB-453 cells.

T3 sequence (P25440 whole entry): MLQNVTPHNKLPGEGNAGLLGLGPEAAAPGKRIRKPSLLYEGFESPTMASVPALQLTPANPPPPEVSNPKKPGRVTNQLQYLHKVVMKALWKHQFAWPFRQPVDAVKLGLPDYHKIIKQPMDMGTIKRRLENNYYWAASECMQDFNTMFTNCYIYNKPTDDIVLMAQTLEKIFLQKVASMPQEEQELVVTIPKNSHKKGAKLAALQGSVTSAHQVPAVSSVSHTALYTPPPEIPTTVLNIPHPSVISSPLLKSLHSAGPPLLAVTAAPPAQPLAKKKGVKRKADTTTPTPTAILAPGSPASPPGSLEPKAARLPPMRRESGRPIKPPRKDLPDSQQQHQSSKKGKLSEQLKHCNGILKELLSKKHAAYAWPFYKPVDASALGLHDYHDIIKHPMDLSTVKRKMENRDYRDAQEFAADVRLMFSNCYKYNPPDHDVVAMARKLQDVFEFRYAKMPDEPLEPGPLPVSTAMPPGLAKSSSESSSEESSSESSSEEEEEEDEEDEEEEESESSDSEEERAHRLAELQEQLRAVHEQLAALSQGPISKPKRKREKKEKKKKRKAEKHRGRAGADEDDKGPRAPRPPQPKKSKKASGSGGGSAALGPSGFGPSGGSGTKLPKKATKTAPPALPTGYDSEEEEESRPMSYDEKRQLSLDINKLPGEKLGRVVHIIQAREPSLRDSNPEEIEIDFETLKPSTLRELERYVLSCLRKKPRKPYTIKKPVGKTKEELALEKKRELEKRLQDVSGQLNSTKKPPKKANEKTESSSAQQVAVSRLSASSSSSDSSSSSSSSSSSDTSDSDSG

As to `Cc1sc2c(c1C)C(c1ccc(Cl)cc1)=N[C@@H](CC(=O)NCCCCSc1cccc3c1CN(C1CCC(=O)NC1=O)C3=O)c1nnc(C)n1-2` (stereo partly drawn) [SIAIS171141, 2-((S)-4-(4-chlorophenyl)-2,3,9-trimethyl-6H-thieno[3,2-f][1,2,4]triazolo[4,3-a][1,4]diazepin-6-yl)-N-(4-((2-(2,6-dioxopiperidin-3-yl)-1-oxoisoindolin-4-yl)thio)butyl)acetamide], the IC50 was found to be 112 nM with MDA-MB-453 cells (setting [5]); 98 nM in the assay with MDA-MB-453 cells (MDA-MB-453 cells); 0.25 ± 0.2 nM with MV-4-11 cells; 0.24 nM with MM1S cells; 10 ± 2 nM with MDA-MB-468 cells; 3.91 nM with SR cells. Besides, the IC50 in the assay with MDA-MB-231 cells was determined as 19.9 ± 9.2 nM.

As for `Cc1sc2c(c1C)C(c1ccc(Cl)cc1)=N[C@@H](CC(=O)NCCCCCSc1cccc3c1CN(C1CCC(=O)NC1=O)C3=O)c1nnc(C)n1-2` (stereo partly drawn) [SIAIS171142, 2-((S)-4-(4-chlorophenyl)-2,3,9-trimethyl-6H-thieno[3,2-f][1,2,4]triazolo[4,3-a][1,4]diazepin-6-yl)-N-(5-((2-(2,6-dioxopiperidin-3-yl)-1-oxoisoindolin-4-yl)thio)pentyl)acetamide], the IC50 worked out at 37.4 nM in the assay with MDA-MB-453 cells (setting [5]); 37.1 nM in the assay on MDA-MB-453 cells (MDA-MB-453 cells); 0.08 ± 0.03 nM in the assay on MV-4-11 cells; 0.31 nM with MM1S cells; 6.1 ± 0.4 nM in the assay on MDA-MB-468 cells; 2.42 nM in the assay with SR cells. Moreover, the IC50 with MDA-MB-231 cells is 17.7 ± 7.6 nM.

Regarding `Cc1sc2c(c1C)C(c1ccc(Cl)cc1)=N[C@@H](CC(=O)NCCCCCCSc1cccc3c1CN(C1CCC(=O)NC1=O)C3=O)c1nnc(C)n1-2` (stereo partly drawn) [SIAIS171143, 2-((S)-4-(4-chlorophenyl)-2,3,9-trimethyl-6H-thieno[3,2-f][1,2,4]triazolo[4,3-a][1,4]diazepin-6-yl)-N-(6-((2-(2,6-dioxopiperidin-3-yl)-1-oxoisoindolin-4-yl)thio)hexyl)acetamide], the IC50 amounted to 0.3 nM in the assay with MV-4-11 cells; 0.32 nM in the assay with MM1S cells; 376 ± 55 nM in the assay with MDA-MB-468 cells; 1.48 nM in the assay with SR cells; 313 ± 309 nM with MDA-MB-231 cells.

Consider `CCC(=C(c1ccc(O)cc1)c1ccc(OCCNC(=O)CCCCCCSc2cccc3c2C(=O)N(C2CCC(=O)NC2=O)C3=O)cc1)c1ccc(O)cc1` (centres unmarked) [SIAIS208170, N-(2-(4-(1,2-bis(4-hydroxyphenyl)but-1-en-1-yl)phenoxy)ethyl)-7-((2-(2,6-dioxopiperidin-3-yl)-1,3-dioxoisoindolin-4-yl)thio)heptanamide], for which the DC50 at ER protein came to 10 nM.

Take `CCC(=C(c1ccc(O)cc1)c1ccc(OCCNC(=O)CCCCCCSc2cccc3c2CN(C2CCC(=O)NC2=O)C3=O)cc1)c1ccc(O)cc1` (centres unmarked) [SIAIS208171, N-(2-(4-(1,2-bis(4-hydroxyphenyl)but-1-en-1-yl)phenoxy)ethyl)-7-((2-(2,6-dioxopiperidin-3-yl)-1-oxoisoindolin-4-yl)thio)heptanamide]: at ER protein, the DC50 was 10 nM.

For `Cc1sc2c(c1C)C(c1ccc(Cl)cc1)=N[C@@H](CC(=O)NCCCCCNc1cccc3c1CN(C1CCC(=O)NC1=O)C3=O)c1nnc(C)n1-2` (stereo partly drawn) [SIAIS213110, 2-((S)-4-(4-chlorophenyl)-2,3,9-trimethyl-6H-thieno[3,2-f][1,2,4]triazolo[4,3-a][1,4]diazepin-6-yl)-N-(5-((2-(2,6-dioxopiperidin-3-yl)-1-oxoisoindolin-4-yl)amino)pentyl)acetamide], the “degradation of BRD4 protein (Western-blot)” value on BRD4 [1] is “significantly weaker ability to degrade BRD2 and BRD4 proteins”. In addition, on BRD4 [2], the “ability to degrade BRD4 protein (Western-blot, in words)” value is recorded as “significantly weaker ability to degrade”. Further, the “ability to degrade BRD2 protein (Western-blot, in words)” value at BRD2 [3] was “significantly weaker ability to degrade”. The “degradation of BRD2 protein (Western-blot)” value on BRD2 [4] was “significantly weaker ability to degrade BRD2 and BRD4 proteins”.

`Cc1sc2c(c1C)C(c1ccc(Cl)cc1)=N[C@@H](CC(=O)NCCCCCOc1cccc3c1CN(C1CCC(=O)NC1=O)C3=O)c1nnc(C)n1-2` (stereo partly drawn) [SIAIS271066, 2-((S)-4-(4-chlorophenyl)-2,3,9-trimethyl-6H-thieno[3,2-f][1,2,4]triazolo[4,3-a][1,4]diazepin-6-yl)-N-(5-((2-(2,6-dioxopiperidin-3-yl)-1-oxoisoindolin-4-yl)oxy)pentyl)acetamide]: at BRD4 [1], the “degradation of BRD4 protein (Western-blot)” value is “significantly weaker ability to degrade BRD2 and BRD4 proteins”. On BRD4 [2], the “ability to degrade BRD4 protein (Western-blot, in words)” value is “significantly weaker ability to degrade”. Moreover, the “ability to degrade BRD2 protein (Western-blot, in words)” value on BRD2 [3] is “significantly weaker ability to degrade”. Besides, the “degradation of BRD2 protein (Western-blot)” value at BRD2 [4] is “significantly weaker ability to degrade BRD2 and BRD4 proteins”.
